From BindingDB's records for aid1799744 (Csar, 2012) come the findings set out here.

pKi: −log10 of the molar value.

The assay deals with Mitogen-activated protein kinase 1 (Homo sapiens, UniProt P28482). Briefly: Assay 1.
Chain of Mitogen-activated protein kinase 1 (P28482 whole entry): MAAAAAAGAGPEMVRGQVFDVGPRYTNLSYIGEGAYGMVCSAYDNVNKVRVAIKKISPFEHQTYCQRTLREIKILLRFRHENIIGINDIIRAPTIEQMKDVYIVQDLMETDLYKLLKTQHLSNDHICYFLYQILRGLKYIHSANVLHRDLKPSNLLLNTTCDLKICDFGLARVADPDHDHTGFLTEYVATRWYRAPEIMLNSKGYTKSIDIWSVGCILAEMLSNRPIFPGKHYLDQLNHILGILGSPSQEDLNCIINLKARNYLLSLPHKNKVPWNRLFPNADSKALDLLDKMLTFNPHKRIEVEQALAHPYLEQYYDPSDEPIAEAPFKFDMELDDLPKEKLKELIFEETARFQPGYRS
In turn, `Cc1cnc(NCc2ccccn2)nc1-c1c[nH]c(C(=O)N[C@H](CO)c2ccccc2)c1` [erk000580] showed a pKi of 5.95.

Take `Cc1cnc(NCC(F)(F)F)nc1-c1cc(C(=O)N[C@H](CO)c2cccc(Cl)c2)n(C)c1` [erk000692]: the pKi is 8.22. The same measure for `CCNc1ncc(C)c(-c2c[nH]c(C(=O)N[C@H](C(=O)OC)c3ccccc3)c2)n1` [erk000470]: 6.00. The compound `CCNc1ncc(C)c(-c2c[nH]c(C(=O)N[C@@H](CO)c3cc(F)cc(C(F)(F)F)c3)c2)n1` [erk000478] gave a negative logarithm of the Ki (pKi) of 6.92. The result for `Cc1cnc(N)nc1-c1cc(C(=O)N[C@H](CO)c2ccccc2)n(Cc2ccccc2)c1` [erk000319] reads 5.40; that for `Cc1cnc(N)nc1-c1c[nH]c(C(=O)N[C@@H](CCO)c2ccccc2)c1` [erk000305], 5.81. The result for `Cc1cnc(Nc2c(F)cccc2F)nc1-c1c[nH]c(C(=O)N[C@H](CO)c2cccc(Cl)c2)c1` [erk000593] reads 7.85. The same measure for `Cc1cnc(NN2CCCCC2)nc1-c1c[nH]c(C(=O)N[C@H](CO)c2ccccc2)c1` [erk000587]: 9.00. For the compound `CCNc1ncc(C)c(-c2c[nH]c(C(=O)N[C@H](CO)c3ccccc3)c2)n1` [erk000041], the pKi is 8.52. The result for `CC[C@@H](C)Nc1ncc(C)c(-c2c[nH]c(C(=O)N[C@H](CO)c3cccc(C)c3)c2)n1` [erk000604] reads 7.12; that for `CCNc1ncc(C)c(-c2c[nH]c(C(=O)NCc3cccc(C(F)(F)F)c3)c2)n1` [erk000062], 6.85. With `CCC[C@H](C)Nc1ncc(C)c(-c2c[nH]c(C(=O)N[C@H](CO)c3ccccc3)c2)n1` [erk000546], the pKi is 7.74. The result for `CCNc1ncc(C)c(-c2c[nH]c(C(=O)N[C@H](CO)c3cccc(C(F)(F)F)c3)c2)n1` [erk000491] reads 7.89. `CC[C@@H](COC(=O)COCCOCCOC)Nc1ncc(C)c(-c2c[nH]c(C(=O)N[C@H](CO)c3cccc(Cl)c3)c2)n1` [erk000699] gave a pKi of 7.89. The same measure for `Cc1cnc(NC2CCC2)nc1-c1c[nH]c(C(=O)N[C@H](CO)c2ccccc2)c1` [erk000540]: 8.22; for `Cc1cnc(Nc2cccc(O)c2C)nc1-c1c[nH]c(C(=O)N[C@H](CO)c2ccccc2)c1` [erk000527]: 8.52; for `NS(=O)(=O)c1cccc(Nc2nccc(-c3ccc(O)c(C(=O)O)c3)n2)c1` [erk000659]: 6.64.

Compound `Cc1cnc(Nc2ccc(OCc3ccccc3)cc2)nc1-c1c[nH]c(C(=O)N[C@H](CO)c2ccccc2)c1` [erk000442] had a pKi of 8.52. `CCN(CC)CCNc1ncc(C)c(-c2c[nH]c(C(=O)NCc3ccc(F)c(F)c3)c2)n1` [erk000364] showed a pKi of 5.40. In turn, `Cc1cnc(N[C@@H](C)CO)nc1-c1c[nH]c(C(=O)N[C@H](CO)c2ccccc2)c1` [erk000471] gave a pKi of 7.82. This pKi lies 2.42 log units higher than the previous one.

For orientation: pKi means −log10 of the Ki, conventionally taken in molar units.
